Results from US8796460B2, “Compounds for inhibiting KSP kinesin activity” (Mercky Sharp & Dohme Corp., priority 2007, dated 2014).

What follows are compounds tested on HCT116 colon cancer cells (assay: KSP Cellular Assay (percent of cells staining positive for Phos-Histone H3 / Phos-MPM2)). Details: Homo sapiens, HCT-116, 16 h, Table 101; HCT116 cells, 16 hours with drug; read-out: ED50 (nM) Range.
Type: cell-based
Protocol: HCT116 colon cancer cells were grown in DMEM:F12 media with 10% heat inactivated FBS at 37 degrees with 5% CO2. Cells were plated at 7,500 cells per well in PDL coated 384-well tissue culture plates. 6 hours later media was removed and new media containing drug was added. Cells were incubated with drug for 16 hours. All further steps were performed at room temperature in the dark. Cells were fixed with 25 ul/well Prefer fixation solution plus 250 nM Hoechst dye and incubated for 30 minutes. The fixation solution was removed and cells were washed with PBS. Cells were then permeabilized with 25 ul/well 0.2% Triton-X in PBS and incubated for 10 minutes. Cells were washed with PBS and then incubated with 25 ul/well PBS containing 3% FBS for 30 minutes. Cells were then stained overnight at 4 degrees with 25 ul/well antibody solution in PBS plus 3% FBS. Antibodies used were Phos-Histone H3 (ser10)-Alexa Flur 488 Conjugate and Phos-MPM2 Texas Red Conjugate. Cells were washed with PBS and then immunofluorescence images captured with HT Pathway microscope. The percent of cells staining positive was calculated and EC50 values for the compounds of the invention that were tested were determined using Excel XLfit.
EC50 Determinations: Dose-response curves were plotted from inhibition data generated each in duplicate, from 8 point serial dilutions of inhibitory compounds. Concentration of compound was plotted against enzyme activity (OD reading). To generate EC50 values, the dose-response curves were then fitted to a standard sigmoidal curve and EC50 values were derived by nonlinear regression analysis.

Row | Structure (SMILES) | EC50
1 | CC(=O)N1N=C(c2cc(F)ccc2F)SC12CCOc1ccccc12 (centres unmarked) [compound 102] | ≤ 500 nM
2 | CC(=O)N1N=C(c2cc(F)ccc2F)SC12CCCc1sccc12 (centres unmarked) [compound 103] | > 1000 nM
3 | CC(=O)N1N=C(c2cc(F)ccc2F)SC12CCSc1ccccc12 (centres unmarked) [compound 104] | > 1000 nM
4 | CC(=O)N1N=C(c2cc(F)ccc2F)SC12COc1ccccc12 (centres unmarked) [compound 106] | ≤ 500 nM
5 | CC(=O)N1N=C(c2cc(F)ccc2F)SC12CCCc1ccsc12 (centres unmarked) [compound 107] | > 500 nM
6 | CC(=O)N1N=C(c2cc(F)ccc2F)SC12CC[S+]([O-])c1ccccc12 (centres unmarked) [compound 108] | > 1000 nM
7 | CC(=O)N1N=C(c2cc(F)ccc2F)SC12CCS(=O)(=O)c1ccccc12 (centres unmarked) [compound 109] | > 1000 nM
8 | CC(=O)N1N=C(c2cc(F)ccc2F)SC12CCN(C)c1ccccc12 (centres unmarked) [compound 111] | > 1000 nM
9 | CC(=O)N1CCC2(SC(c3cc(F)ccc3F)=NN2C(C)=O)c2ccccc21 (centres unmarked) [compound 112] | > 1000 nM
10 | CCOC(=O)N1CCC2(SC(c3cc(F)ccc3F)=NN2C(C)=O)c2ccccc21 (centres unmarked) [compound 113] | > 1000 nM
11 | CC(=O)N1N=C(c2cc(F)ccc2F)SC12CCN(C(C)=S)c1ccccc12 (centres unmarked) [compound 114] | > 1000 nM
12 | CC(=O)N1N=C(c2cc(F)ccc2F)SC12CC(C)Oc1ccc(F)cc12 (centres unmarked) [compound 115] | > 1000 nM
13 | CC(=O)N1N=C(c2cc(F)ccc2F)SC12CCOc1ccc(F)cc12 (centres unmarked) [compound 116] | ≤ 500 nM
14 | CC(=O)N1N=C(c2cc(F)ccc2F)SC12CC(c1ccccc1)Oc1ccccc12 (centres unmarked) [compound 117] | > 1000 nM
15 | CC(=O)N1N=C(C2=C(F)CCC(F)=C2)SC12Cc1ccccc12 (centres unmarked) [compound 120] | ≤ 500 nM
16 | CC(=O)N1N=C(c2cc(F)ccc2F)SC12CCCc1ncccc12 (centres unmarked) [compound 123] | > 1000 nM
17 | CC(=O)N1N=C(c2cc(F)ccc2F)SC12CCCc1cccnc12 (centres unmarked) [compound 124] | > 1000 nM
18 | CC(=O)N1N=C(c2cc(F)ccc2F)SC12CC1(CCNCC1)Oc1ccccc12 (centres unmarked) [compound 125] | > 1000 nM
19 | CC(=O)N1CCC2(CC1)CC1(SC(c3cc(F)ccc3F)=NN1C(C)=O)c1ccccc1O2 (centres unmarked) [compound 126] | > 1000 nM
20 | CC(=O)N1N=C(c2cc(F)ccc2F)SC12C(=O)Nc1ccccc12 (centres unmarked) [compound 127] | > 1000 nM
21 | CC(=O)N1C(=O)C2(SC(c3cc(F)ccc3F)=NN2C(C)=O)c2ccccc21 (centres unmarked) [compound 128] | > 1000 nM

Next, values leading:

Row | EC50 | Structure (SMILES)
22 | > 1000 nM | CC(=O)N1N=C(c2cc(F)ccc2F)SC12CCCc1ccccc12 (centres unmarked) [compound 101]
23 | ≤ 500 nM | CC(=O)N1N=C(c2cc(F)ccc2F)SC12CCc1ccccc12 (centres unmarked) [compound 105]
24 | ≤ 500 nM | CC(=O)N1N=C(c2cc(F)ccc2F)SC12CCNc1ccccc12 (centres unmarked) [compound 110]
25 | ≤ 500 nM | CC(=O)N1N=C(c2cc(F)ccc2F)S[C@@]12CCc1ccccc12 [compound 118]
26 | 500 to 1000 nM | CC(=O)N1N=C(c2cc(F)ccc2F)S[C@]12CCc1ccccc12 [compound 119]
27 | > 1000 nM | CC(=O)N1N=C(c2cc(F)ccc2F)SC12CCCOc1ccccc12 (centres unmarked) [compound 121]
28 | > 1000 nM | CC(=O)N1N=C(c2cc(F)ccc2F)SC12CCCCc1ccccc12 (centres unmarked) [compound 122]

Same assay, conditions: Homo sapiens, HCT-116, 16 h, Table 401; HCT116 cells, 16 hours with drug; read-out: ED50 (nM) Range

Row | Structure (SMILES) | EC50
29 | CC(C)[C@H](O)C(=O)N1N=C(c2cc(F)ccc2F)SC12CCCc1sccc12 (some centres unmarked) [compound 409] | > 1000 nM
30 | N[C@H](C(=O)N1N=C(c2cc(F)ccc2F)SC12CCSc1ccccc12)C1CC1 (some centres unmarked) [compound 415] | > 1000 nM
31 | N[C@H](C(=O)N1N=C(c2cc(F)ccc2F)SC12CCCc1sccc12)C1CC1 (some centres unmarked) [compound 417] | > 1000 nM
32 | N[C@H](C(=O)N1N=C(c2cc(F)ccc2F)SC12CCOc1ccccc12)C1CC1 (some centres unmarked) [compound 419] | > 1000 nM
33 | CC(C)[C@H](O)C(=O)N1N=C(c2cc(F)ccc2F)SC12CCCc1ccsc12 (some centres unmarked) [compound 424] | > 1000 nM

Now from value to compound:

Row | EC50 | Structure (SMILES)
34 | > 1000 nM | O=C(C1CCNCC1)N1N=C(c2cc(F)ccc2F)SC12CCCc1ccccc12 (centres unmarked) [compound 401]
35 | > 1000 nM | CC(C)[C@H](O)C(=O)N1N=C(c2cc(F)ccc2F)SC12CCCc1ccccc12 (some centres unmarked) [compound 402]
36 | > 1000 nM | O=C([C@@H]1CCCCN1)N1N=C(c2cc(F)ccc2F)SC12CCSc1ccccc12 (some centres unmarked) [compound 403]
37 | > 1000 nM | O=C(C1CCCCN1)N1N=C(c2cc(F)ccc2F)SC12CCOc1ccccc12 (centres unmarked) [compound 404]
38 | > 1000 nM | O=C(C1CCCNC1)N1N=C(c2cc(F)ccc2F)SC12CCSc1ccccc12 (centres unmarked) [compound 405]
39 | > 1000 nM | O=C(C1CCNCC1)N1N=C(c2cc(F)ccc2F)SC12CCSc1ccccc12 (centres unmarked) [compound 406]
40 | > 1000 nM | O=C(C1CCCNC1)N1N=C(c2cc(F)ccc2F)SC12CCOc1ccccc12 (centres unmarked) [compound 407]
41 | > 1000 nM | O=C(C1CCNCC1)N1N=C(c2cc(F)ccc2F)SC12CCOc1ccccc12 (centres unmarked) [compound 408]
42 | > 1000 nM | O=C(C1CCCN1)N1N=C(c2cc(F)ccc2F)SC12CCCc1ccccc12 (centres unmarked) [compound 410]
43 | > 1000 nM | O=C([C@@H]1CCCN1)N1N=C(c2cc(F)ccc2F)SC12CCCc1sccc12 (some centres unmarked) [compound 411]
44 | > 1000 nM | O=C(C1CCNC1)N1N=C(c2cc(F)ccc2F)SC12CCCc1ccccc12 (centres unmarked) [compound 412]
45 | > 1000 nM | O=C([C@@H]1CCCN1)N1N=C(c2cc(F)ccc2F)SC12CCSc1ccccc12 (some centres unmarked) [compound 413]
46 | > 1000 nM | O=C([C@@H]1CCCCN1)N1N=C(c2cc(F)ccc2F)SC12CCCc1ccccc12 (some centres unmarked) [compound 414]
47 | > 1000 nM | O=C(C1CCCNC1)N1N=C(c2cc(F)ccc2F)SC12CCCc1ccccc12 (centres unmarked) [compound 416]
48 | > 1000 nM | N[C@H](C(=O)N1N=C(c2cc(F)ccc2F)SC12CCCc1ccccc12)C1CC1 (some centres unmarked) [compound 418]
49 | > 1000 nM | N[C@H](C(=O)N1N=C(c2cc(F)ccc2F)SC12CCc1ccccc12)C1CC1 (some centres unmarked) [compound 420]
50 | > 1000 nM | CN1CCC(C(=O)N2N=C(c3cc(F)ccc3F)SC23CCc2ccccc23)CC1 (centres unmarked) [compound 421]
51 | > 1000 nM | O=C(C1CCNCC1)N1N=C(c2cc(F)ccc2F)SC12CCc1ccccc12 (centres unmarked) [compound 422]
52 | > 1000 nM | O=C([C@@H]1CCCN1)N1N=C(c2cc(F)ccc2F)SC12CCc1ccccc12 (some centres unmarked) [compound 423]
53 | > 1000 nM | O=C([C@@H]1CCCCN1)N1N=C(c2cc(F)ccc2F)SC12CCCc1ccsc12 (some centres unmarked) [compound 425]
54 | > 1000 nM | O=C(C1CCCNC1)N1N=C(c2cc(F)ccc2F)SC12CCCc1ccsc12 (centres unmarked) [compound 426]
55 | > 1000 nM | O=C([C@@H]1CCCN1)N1N=C(c2cc(F)ccc2F)SC12CCCc1ccsc12 (some centres unmarked) [compound 427]

Same assay, conditions: Homo sapiens, HCT-116, 16 h, Table 1201 (Example 1201); HCT116 cells, 16 hours with drug; read-out: EC50 (nM) Range

Row | EC50 | Structure (SMILES)
56 | ≤ 500 nM | CC(=O)N1N=C(c2cc(F)ccc2F)S[C@@]12c1ccccc1OC[C@H]2CCN1CCOCC1 (single isomer, unassigned) [compound 1201]

Same assay, conditions: Homo sapiens, HCT-116, 16 h, table of Example 1001; HCT116 cells, 16 hours with drug; read-out: EC50 (nM) Range

Row | EC50 | Structure (SMILES)
57 | ≤ 500 nM | CC(=O)N1N=C(c2cc(F)ccc2F)S[C@]12c1ccccc1OC[C@H]2CCCO (single isomer, unassigned) [compound 1002]
58 | > 1000 nM | CC(=O)N1N=C(c2cc(F)ccc2F)S[C@]12c1ccccc1OC[C@@H]2CCCO (single isomer, unassigned) [compound 1003]

Same assay, conditions: Homo sapiens, HCT-116, 16 h, table of Example 1801 (headed Table 1201); HCT116 cells, 16 hours with drug; read-out: EC50 (nM) Range

Row | EC50 | Structure (SMILES)
59 | ≤ 500 nM | CC(=O)N1N=C(c2ccc(F)cc2F)S[C@@]12c1ccccc1OC[C@H]2CCN (single isomer, unassigned) [compound 1801]

Same assay, conditions: Homo sapiens, HCT-116, 16 h, table of Example 1901; HCT116 cells, 16 hours with drug; read-out: EC50 (nM) Range

Row | EC50 | Structure (SMILES)
60 | > 1000 nM | CO[C@@H](C)C(=O)N1N=C(c2cc(F)ccc2F)S[C@]12c1cc(F)ccc1OC[C@@H]2CCN (single isomer, unassigned) [compound 1901]

Same assay, conditions: Homo sapiens, HCT-116, 16 h, table of Example 2101; HCT116 cells, 16 hours with drug; read-out: EC50 (nM) Range

Row | EC50 | Structure (SMILES)
61 | ≤ 500 nM | CCOC(=O)N1N=C(c2cc(F)ccc2F)S[C@@]12c1cc(F)ccc1OC[C@H]2CCN (single isomer, unassigned) [compound 2101]

Same assay, conditions: Homo sapiens, HCT-116, 16 h, table of Example 2201; HCT116 cells, 16 hours with drug; read-out: EC50 (nM) Range

Row | EC50 | Structure (SMILES)
62 | > 1000 nM | CN(C)C(=O)N1N=C(c2cc(F)ccc2F)S[C@@]12c1cc(F)ccc1OC[C@H]2CCN (single isomer, unassigned) [compound 2201]

Same assay, conditions: Homo sapiens, HCT-116, 16 h, table of Example 2401; HCT116 cells, 16 hours with drug; read-out: EC50 (nM) Range

Row | EC50 | Structure (SMILES)
63 | ≤ 500 nM | CC(=O)N1N=C(c2cc(F)ccc2F)S[C@@]12CCNc1ccccc12 (single isomer, unassigned) [compound 2401]

Same assay, conditions: Homo sapiens, HCT-116, 16 h, table of Example 2901; HCT116 cells, 16 hours with drug; read-out: EC50 (nM) Range

Row | EC50 | Structure (SMILES)
64 | ≤ 500 nM | CC(=O)N1N=C(c2cc(F)ccc2F)S[C@@]12c1cc(F)ccc1NC[C@@H]2CCN (single isomer, unassigned) [compound 2901]

Same assay, conditions: Homo sapiens, HCT-116; read-out: EC50 (nM) Range

Row | EC50 | Structure (SMILES)
65 | ≤ 500 nM | C=CC[C@@H]1CNc2ccccc2[C@]12SC(c1cc(F)ccc1F)=NN2C(C)=O (single isomer, unassigned) [compound 3001]
